According to PMC7745731 (ACS infectious diseases, 2020):

Biological target: FadD17 (Rv3506) (Mycobacterium tuberculosis, UniProt O53551)
Sequence (O53551 whole entry): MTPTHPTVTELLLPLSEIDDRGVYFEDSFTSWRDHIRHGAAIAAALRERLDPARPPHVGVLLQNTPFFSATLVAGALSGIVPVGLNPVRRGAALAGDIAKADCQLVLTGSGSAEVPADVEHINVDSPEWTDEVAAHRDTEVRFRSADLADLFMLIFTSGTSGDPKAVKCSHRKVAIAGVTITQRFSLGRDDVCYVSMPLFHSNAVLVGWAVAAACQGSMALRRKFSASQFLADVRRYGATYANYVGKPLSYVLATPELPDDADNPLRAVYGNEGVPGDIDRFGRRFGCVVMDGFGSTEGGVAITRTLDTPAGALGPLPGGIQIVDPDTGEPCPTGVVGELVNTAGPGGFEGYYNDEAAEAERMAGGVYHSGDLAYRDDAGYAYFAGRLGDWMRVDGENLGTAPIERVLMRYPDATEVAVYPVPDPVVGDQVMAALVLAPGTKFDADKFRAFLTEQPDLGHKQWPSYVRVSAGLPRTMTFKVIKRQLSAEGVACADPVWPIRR

## C[C@H](/C=C/C(=O)O)[C@H]1CC[C@H]2[C@@H]3CCC4=CC(=O)CC[C@]4(C)[C@H]3CC[C@]12C [3-OCDO-acid]
  preparative CoA ligation, HPLC: 3-OCDO-CoA was then synthesized enzymatically from the 3-OCDO-acid using the steroid-CoA ligase FadD17
